From patent publication US10450263B2, “Benzo annulenes as antiviral agents” (Southern Research Institute, priority 2017, dated 2019)
Like-named read-outs stand apart in the source and are kept apart here.

Experiments:
Chikungunya virus = assay: Evaluation of antiviral activity against Chikungunya virus (EC90); assay type: cell-based
Excerpt: EC90 refers to the concentration of the compound that is required for 90% antagonism or inhibition of CHIKV. EC90 also refers to the concentration of a substance that is required for 90% antagonism or inhibition of CHIKV in vivo.
(§1) The compounds below in Table 1 were synthesized with methods identical or analogous to those described herein. The requisite starting materials were commercially available, described in the literature, or readily synthesized by one skilled in the art of organic synthesis.

[1] = CC50 reported alongside the CHIKV antiviral assay (cytotoxicity); assay type: cell-based; conditions: cell line not given
Excerpt: as §1

[2] = Chikungunya virus, read-out: EC90 (μM) CHIKV, concentration required for 90% inhibition of CHIKV

| Compound | EC90 (Chikungunya virus; [2]) [µM] | CC50 [1] [µM] | EC90 (Chikungunya virus; concentration required for 90% inhibition of CHIKV, read-out: EC90 (μM) CHIKV) [µM] | EC90 (Chikungunya virus; read-out: EC90 (μM) CHIKV, concentration required for 90% inhibition of CHIKV) [µM] |
| --- | --- | --- | --- | --- |
| CC(C)(C)c1ccc(C(=O)Nc2cc3c(cc2O)CCCCC3)cc1 [Compound 15, 4-(tert-butyl)-N-(3-hydroxy-6,7,8,9-tetrahydro-5H-benzo[7]annulen-2-yl)benzamide] | 0.4 | > 30 |  |  |
| COc1cc2c(cc1NC(=O)c1ccc(Cl)cc1I)CCCCC2 [Compound 75, 4-Chloro-2-iodo-N-(3-methoxy-6,7,8,9-tetrahydro-5H-benzo[7]annulen-2-yl)benzamide] | 6.1 | > 30 |  |  |
| COc1cc2c(cc1NC(=O)c1ccc(C(C)(C)C#N)cc1)CCCCC2 [Compound 50, 4-(2-Cyanopropan-2-yl)-N-(3-methoxy-6,7,8,9-tetrahydro-5H-benzo[7]annulen-2-yl)benzamide] | 1.16 | 3.57 |  |  |
| CC(C)(C)c1ccc(C(=O)Nc2cc3c(cc2C#N)CCCCC3)cc1 [Compound 12, 4-(tert-Butyl)-N-(3-cyano-6,7,8,9-tetrahydro-5H-benzo[7]annulen-2-yl)benzamide] | 4.4 | 17 |  |  |
| COc1cc2c(cc1NC(=O)c1cc(F)c(C(C)(C)C)c(F)c1)CCCCC2 [Compound 90, 4-(tert-butyl)-3,5-difluoro-N-(3-methoxy-6,7,8,9-tetrahydro-5H-benzo[7]annulen-2-yl)benzamide] | 3.3 | > 30 |  |  |
| CC(C)(C)c1ccc(C(=O)Nc2ccc3c(c2)CCCCC3)cc1 [Compound 19, 4-(tert-Butyl)-N-(6,7,8,9-tetrahydro-5H-benzo[7]annulen-2-yl)benzamide] | 0.7 | 79.1 |  |  |
| CN(C(=O)c1ccc(C(C)(C)C)cc1)c1ccc2c(c1)CCCCC2 [Compound 28, 4-(tert-butyl)-N-methyl-N-(6,7,8,9-tetrahydro-5H-benzo[7]annulen-2-yl)benzamide] | > 10 | > 30 |  |  |
| COc1cc2c(cc1NC(=O)Cc1cccs1)CCCCC2 [Compound 73, N-(3-Methoxy-6,7,8,9-tetrahydro-5H-benzo[7]annulen-2-yl)-2-(thiophen-2-yl)acetamide] | 18.7 | > 30 |  |  |
| COc1cc2c(cc1NC(=O)c1ccc(C(C)(C)O)cc1)CCCCC2 [Compound 46, 4-(2-Hydroxypropan-2-yl)-N-(3-methoxy-6,7,8,9-Tetrahydro-5H-benzo[7]annulen-2-yl)benzamide] | 2.45 | 79.2 |  |  |
| COc1cc2c(cc1NC(=O)c1cccc(C(C)(C)C)c1)CCCCC2 [Compound 41, 3-(tert-Butyl)-N-(3-methoxy-6,7,8,9-tetrahydro-5H-benzo[7]annulen-2-yl)benzamide] | 34.1 | > 30 |  |  |
| 3,5-Difluoro-N-(3-methoxy-6,7,8,9-tetrahydro-5H-benzo[7]annulen-2-yl)picolinamide [Compound 77] |  | > 30 | 2.9 |  |
| CC(C)(C)c1ncc(C(=O)Nc2ccc3c(c2)CCCCC3)s1 [Compound 25, 2-(tert-butyl)-N-(6,7,8,9-tetrahydro-5H-benzo[7]annulen-2-yl)thiazole-5-carboxamide] | 22.6 | 15.7 |  |  |
| COc1cc2c(cc1NC(=O)c1c[nH]nc1C)CCCCC2 [Compound 69, N-(3-methoxy-6,7,8,9-tetrahydro-5H-benzo[7]annulen-2-yl)-3-methyl-1H-pyrazole-4-carboxamide] | 3.1 | > 30 |  |  |
| COc1cc2c(cc1NC(=O)Cc1ccc(C(C)(C)C)cc1)CCCCC2 [Compound 54] | 42.9 | > 30 |  |  |
| CC(C)(C)c1ccc(C(=O)Nc2ccc3c(c2OC(F)(F)F)CCCCC3)cc1 [Compound 87, 4-(tert-butyl)-N-(1-(trifluoromethoxy)-6,7,8,9-tetrahydro-5H-benzo[7]annulen-2-yl)benzamide] | 19.5 | > 30 |  |  |
| COc1cc2c(cc1NC(=O)c1ccc(C3(O)CCC3)cc1)CCCCC2 [Compound 66, 4-(1-Hydroxycyclobutyl)-N-(3-methoxy-6,7,8,9-tetrahydro-5H-benzo[7]annulen-2-yl)benzamide] | > 10 | > 30 |  |  |
| CCCc1ccc(C(=O)Nc2cc3c(cc2OC)CCCCC3)cc1 [Compound 57, N-(3-methoxy-6,7,8,9-tetrahydro-5H-benzo[7]annulen-2-yl)-4-propylbenzamide] | > 10 | > 30 |  |  |
| COc1cc2c(cc1NC(=O)c1ccc3nonc3c1)CCCCC2 [Compound 40, N-(3-Methoxy-6,7,8,9-tetrahydro-5H-benzo[7]annulen-2-yl)benzo[c][1,2,5]oxadiazole-5-carboxamide] | > 30 | > 30 |  |  |
| CC(C)(C)c1ccc(C(=O)Nc2cc3c(cc2OCc2ccc(C(F)(F)F)cc2)CCCCC3)cc1 [Compound 17, 4-(tert-Butyl)-N-(3-((4-(trifluoromethyl)benzyl)oxy)-6,7,8,9-tetrahydro-5H-benzo[7]annulen-2-yl)benzamide] | > 30 | > 30 |  |  |

| Compound | EC90 (Chikungunya virus; [2]) [µM] | CC50 [1] [µM] | EC90 (Chikungunya virus; concentration required for 90% inhibition of CHIKV, read-out: EC90 (μM) CHIKV) [µM] | EC90 (Chikungunya virus; read-out: EC90 (μM) CHIKV, concentration required for 90% inhibition of CHIKV) [µM] |
| --- | --- | --- | --- | --- |
| COc1cc2c(cc1NC(=O)c1ccc(F)cc1)CCCCC2 [Compound 78, 4-Fluoro-N-(3-methoxy-6,7,8,9-tetrahydro-5H-benzo[7]annulen-2-yl)benzamide] | > 10 | > 30 |  |  |
| COc1cc2c(cc1NC(=O)c1ccccc1C(C)(C)C)CCCCC2 [Compound 43, 2-(tert-Butyl)-N-(3-methoxy-6,7,8,9-tetrahydro-5H-benzo[7]annulen-2-yl)benzamide] | 3.2 | > 30 |  |  |
| COc1cc2c(cc1NC(=O)c1ccc(C(O)(C(F)(F)F)C(F)(F)F)cc1)CCCCC2 [Compound 48, 4-(1,1,1,3,3,3-Hexafluoro-2-hydroxypropan-2-yl)-N-(3-methoxy-6,7,8,9-tetrahydro-5H-benzo[7]annulen-2-yl)benzamide] | 2.8 | 28.9 |  |  |
| COc1cc2c(cc1NC(=O)c1ccc(-c3ccccn3)cc1)CCCCC2 [Compound 67, N-(3-Methoxy-6,7,8,9-tetrahydro-5H-benzo[7]annulen-2-yl)-4-(pyridin-2-yl)benzamide] | > 10 | > 30 |  |  |
| CC(C)(C)c1ccc(C(=O)Nc2cc3c(cc2CO)CCCCC3)cc1 [Compound 29] | > 10 | > 30 |  |  |
| COc1cc2c(cc1NC(=O)c1cnc(C)cn1)CCCCC2 [Compound 81, N-(3-methoxy-6,7,8,9-tetrahydro-5H-benzo[7]annulen-2-yl)-5-methylpyrazine-2-carboxamide] |  | > 30 |  | > 10 |
| CC(C)(C)c1ccc(C(=O)Nc2cc3c(cc2OC(F)(F)F)CCCCC3)cc1 [Compound 13, 4-(tert-butyl)-N-(3-(trifluoromethoxy)-6,7,8,9-tetrahydro-5H-benzo[7]annulen-2-yl)benzamide] | 13.7 | > 25 |  |  |
| COc1cc2c(cc1NC(=O)C1CCOCC1)CCCCC2 [Compound 82, N-(3-methoxy-6,7,8,9-tetrahydro-5H-benzo[7]annulen-2-yl)tetrahydro-2H-pyran-4-carboxamide] | > 10 | > 30 |  |  |
| COc1cc2c(cc1NC(=O)CCc1ccc(C(C)(C)C)cc1)CCCCC2 [Compound 68, 3-(4-(tert-Butyl)phenyl)-N-(3-methoxy-6,7,8,9-tetrahydro-5H-benzo[7]annulen-2-yl)propanamide] | > 10 | > 30 |  |  |
| COc1cc2c(cc1N1Cc3cc(C(C)(C)C)ccc3C1=O)CCCCC2 [Compound 60, 5-(tert-Butyl)-2-(3-methoxy-6,7,8,9-tetrahydro-5H-benzo[7]annulen-2-yl)isoindolin-1-one] | > 10 | > 30 |  |  |
| COc1cc2c(cc1NC(=O)c1ccc(Cl)cc1)CCCCC2 [Compound 71, 4-Chloro-N-(3-methoxy-6,7,8,9-tetrahydro-5H-benzo[7]annulen-2-yl)benzamide] | 6.4 | > 30 |  |  |
| COc1cc2c(cc1NC(=O)c1ccc(C(C)(C)C)c(F)c1)CCCCC2 [Compound 53, 4-(tert-Butyl)-3-fluoro-N-(3-methoxy-6,7,8,9-tetrahydro-5H-benzo[7]annulen-2-yl)benzamide] | 2.24 | > 30 |  |  |
| COc1cc2c(cc1NC(=O)c1ccc(C(C)(C)C)s1)CCCCC2 [Compound 38, 5-(tert-Butyl)-N-(3-methoxy-6,7,8,9-tetrahydro-5H-benzo[7]annulen-2-yl)thiophene-2-carboxamide] | 3.1 | 32 |  |  |
| CC(C)(C)c1ccc(C(=O)Nc2cc3c(cc2C(F)(F)F)CCCCC3)cc1 [Compound 14, 4-(tert-butyl)-N-(3-(trifluoromethyl)-6,7,8,9-tetrahydro-5H-benzo[7]annulen-2-yl)benzamide] | > 30 | > 30 |  |  |
| COc1cc2c(cc1NC(=O)c1ccc(C3(C(F)(F)F)CC3)cc1)CCCCC2 [Compound 51, N-(3-methoxy-6,7,8,9-tetrahydro-5H-benzo[7]annulen-2-yl)-4-(1-(trifluoromethyl)cyclopropyl)benzamide] | 1.3 | > 30 |  |  |
| COc1cc2c(cc1NC(=O)c1cnc(C)s1)CCCCC2 [Compound 33, N-(3-methoxy-6,7,8,9-tetrahydro-5H-benzo[7]annulen-2-yl)-2-methylthiazole-5-carboxamide] | > 30 | > 30 |  |  |
| CCc1ccc(C(=O)Nc2cc3c(cc2OC)CCCCC3)cc1 [Compound 56, 4-Ethyl-N-(3-methoxy-6,7,8,9-tetrahydro-5H-benzo[7]annulen-2-yl)benzamide] | > 10 | > 30 |  |  |
| COc1cc2c(cc1N(C)C(=O)c1ccc(C(C)(C)C)cc1)CCCCC2 [Compound 30] | 14.5 | > 30 |  |  |
| COc1cc2c(cc1NC(=O)c1ccc(C(C)(C)C)cc1)CCCCC2 [Compound 3, 4-(tert-Butyl)-N-(3-methoxy-6,7,8,9-tetrahydro-5H-benzo[7]annulen-2-yl)benzamide] |  | > 30 |  |  |
